Test results taken from PMC5148682 (European journal of medicinal chemistry, 2016).
pIC50: −log10 of the molar value.

Tests used:
[1] = molecular target: E. coli topoisomerase I (Escherichia coli, UniProt P06612); test: E. coli topoisomerase I relaxation activity inhibition assay; format: biochemical
[2] = molecular target: T1, Human topoisomerase I (Homo sapiens, UniProt P11387); test: Human topoisomerase I relaxation inhibition assay; format: biochemical
T1 sequence (P11387 1-765): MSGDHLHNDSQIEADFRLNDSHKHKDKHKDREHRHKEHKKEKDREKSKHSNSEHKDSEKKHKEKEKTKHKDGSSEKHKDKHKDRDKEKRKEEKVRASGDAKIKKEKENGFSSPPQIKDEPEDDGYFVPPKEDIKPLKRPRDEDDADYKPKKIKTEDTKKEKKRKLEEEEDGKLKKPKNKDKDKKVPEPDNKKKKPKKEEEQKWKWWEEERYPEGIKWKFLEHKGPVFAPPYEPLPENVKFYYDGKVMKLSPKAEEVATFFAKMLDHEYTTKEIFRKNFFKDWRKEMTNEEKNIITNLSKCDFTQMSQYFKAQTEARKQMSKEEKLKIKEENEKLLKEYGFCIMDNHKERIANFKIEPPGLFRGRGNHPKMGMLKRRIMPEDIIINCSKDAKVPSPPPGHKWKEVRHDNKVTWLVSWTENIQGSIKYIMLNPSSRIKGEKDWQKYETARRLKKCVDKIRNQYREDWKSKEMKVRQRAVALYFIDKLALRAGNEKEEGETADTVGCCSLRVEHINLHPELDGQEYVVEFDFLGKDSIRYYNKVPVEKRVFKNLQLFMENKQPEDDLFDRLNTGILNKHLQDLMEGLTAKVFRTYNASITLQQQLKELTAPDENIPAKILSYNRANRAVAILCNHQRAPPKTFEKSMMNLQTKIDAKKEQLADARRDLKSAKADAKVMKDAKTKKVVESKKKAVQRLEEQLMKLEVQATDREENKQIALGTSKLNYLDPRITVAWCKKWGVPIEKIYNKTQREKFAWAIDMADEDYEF

[3] = test system: M tuberculosis (H37Rv); test: MIC by modified microplate Alamar blue assay; format: cell-based
[4] = test system: E. coli (MG1655) WT; test: MIC by broth microdilution, wild-type E. coli; settings: Escherichia coli, MG1655, read-out: Whole cell based antibacterial activity (MIC, µM) E. coli (MG1655) WT

E. coli topoisomerase I, sequence (P06612 whole entry): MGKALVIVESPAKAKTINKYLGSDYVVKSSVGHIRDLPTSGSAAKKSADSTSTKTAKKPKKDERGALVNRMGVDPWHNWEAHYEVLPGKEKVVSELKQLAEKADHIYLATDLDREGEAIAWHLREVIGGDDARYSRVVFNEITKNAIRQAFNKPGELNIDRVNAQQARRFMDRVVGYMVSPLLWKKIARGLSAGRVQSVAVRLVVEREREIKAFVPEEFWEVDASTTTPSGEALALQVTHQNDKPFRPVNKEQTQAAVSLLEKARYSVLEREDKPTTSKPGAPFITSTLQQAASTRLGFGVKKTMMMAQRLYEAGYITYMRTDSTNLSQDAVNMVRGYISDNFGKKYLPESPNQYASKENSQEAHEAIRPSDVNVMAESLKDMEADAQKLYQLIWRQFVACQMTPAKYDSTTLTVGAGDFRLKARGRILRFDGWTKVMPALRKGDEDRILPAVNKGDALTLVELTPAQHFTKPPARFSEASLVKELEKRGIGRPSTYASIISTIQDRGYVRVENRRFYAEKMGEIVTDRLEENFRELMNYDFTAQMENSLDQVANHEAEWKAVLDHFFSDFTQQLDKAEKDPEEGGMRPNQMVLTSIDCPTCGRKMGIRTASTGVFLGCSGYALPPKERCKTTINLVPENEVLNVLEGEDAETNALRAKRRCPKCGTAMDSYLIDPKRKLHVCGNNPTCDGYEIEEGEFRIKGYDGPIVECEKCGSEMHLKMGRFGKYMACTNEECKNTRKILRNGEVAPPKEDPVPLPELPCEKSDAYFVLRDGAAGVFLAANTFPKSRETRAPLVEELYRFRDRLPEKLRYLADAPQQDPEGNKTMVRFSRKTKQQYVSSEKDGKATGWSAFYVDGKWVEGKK

## CCOC(=O)c1cn2c3c(c(F)c(F)cc3c1=O)Oc1cc(C(F)(F)F)ccc1-2 [Compound 6c, Ethyl 5,6-difluoro-3-oxo-9-(trifluoromethyl)-3H–pyrido[3,2,1-kl]phenoxazine-2-carboxylate]
[1]; pIC50, experimental, pIC50 = – logIC50, E. coli topoisomerase I
  pIC50: < 3.90

## O=C(O)c1cn2c3c(c(F)c(F)cc3c1=O)Oc1cc(C(F)(F)F)ccc1-2 [Compound 7c, 5,6-Difluoro-3-oxo-9-(trifluoromethyl)-3H–pyrido[3,2,1-kl]phenoxazine-2-carboxylic acid]
[1]; IC50 (µM), E. coli topoisomerase I, value as used in the CoMFA dataset (Table 2)
  IC50: > 125 µM

## CC(=O)c1ccc2c(c1)Oc1c(F)c(F)cc3c(=O)c(C(=O)O)cn-2c13 [Compound 7d, 9-Acetyl-5,6-difluoro-3-oxo-3H–pyrido[3,2,1-kl] phenoxazine-2-carboxylic acid]
[1]
  fold less active than 1 against E. coli topoisomerase I: 8–16 fold

## O=C(O)c1cn2c3c(c(F)c(F)cc3c1=O)Oc1cc([N+](=O)[O-])c(Cl)cc1-2 [Compound 7e, 10-Chloro-5,6-difluoro-9-nitro-3-oxo-3H–pyrido[3,2,1-kl]phenoxazine-2-carboxylic acid]
[1]
  fold less active than 1 against E. coli topoisomerase I: 8–16 fold

## Nc1ccc2c(c1)Oc1c(NCCN3CCOCC3)c(F)cc3c(=O)c(C(=O)O)cn-2c13 [Compound 11h, 9-Amino-5-fluoro-6-((2-morpholinoethyl)amino)-3-oxo-3H–pyrido[3,2,1-kl]phenoxazine-2-carboxylic acid]
[2]
  pIC50: 4.81 to 5.11

## Nc1ccc2c(c1)Oc1c(N3CC[C@H](N)C3)c(F)cc3c(=O)c(C(=O)O)cn-2c13 [Compound 17a, (S)-9-amino-6-(3-aminopyrrolidin-1-yl)-5-fluoro-3-oxo-3H–pyrido[3,2,1-kl]phenoxazine-2-carboxylic acid]
[3]; MABA
  Whole cell based antibacterial activity (MIC, µM) M tuberculosis (H37Rv): >63.1 µM
[3]; Mycobacterium tuberculosis, H37RV, read-out: Whole cell based antibacterial activity (MIC, µM) M tuberculosis (H37Rv)
  MIC: > 63.1 µM

## Nc1ccc2c(c1)Oc1c(N3CC[C@@H](N)C3)c(F)cc3c(=O)c(C(=O)O)cn-2c13 [Compound 17b, (R)-9-amino-6-(3-aminopyrrolidin-1-yl)-5-fluoro-3-oxo-3H–pyrido[3,2,1-kl]phenoxazine-2-carboxylic acid]
[4]
  MIC: > 200 µM
